In patent US8518373B2, “Ionic and non-ionic radiographic contrast agents for use in combined X-ray and nuclear magnetic resonance diagnostics” (priority 2001, dated 2013):
Read-outs that look alike come from different tables or passages of the source.

Assays:
[1] = cited from earlier work
[2] = cited from earlier work; remark: listed apart in the source
[3] = rabbit, in vivo, cited from earlier work
[4] = residual water signal after irradiating the amido protons, effect of radiofrequency field intensity, 200 mM Iopamidol; settings: for % residual signal: 200 mM, pH 6.29, 2.1 T, 39° C., rf field at 9.4 ppm
Experimental: A 200 Mm Iopamidol solution at pH=6.29 was investigated at 2.1 T magnetic field intensity and at a temperature of 39° C. (JEOL EX-90 spectrometer). Considering 100 the area of the water signal with irradiation at −9.4 ppm, its decrease (expressed as % residual signal) was evaluated in the presence of a rf field tuned at 9.4 ppm (signal of the amido protons).

[5] = dog, in vivo; cited from earlier work
[6] = residual water signal after irradiating the amido proton signal, effect of temperature, 200 mM Iopamidol; settings: pH 6.74, 2.1 T, irradiation at 9.4 ppm, attenuation 300 dB
Experimental: A 200 mM Iopamidol solution at pH=6.74 was investigated at 2.1 T magnetic field intensity (JEOL EX-90 spectrometer). After irradiating the amido proton signal at 9.4 ppm, with attenuation of 300 dB, the area under the water signal was measured. Considering 100 the area of the water signal with irradiation at −9.4 ppm, a drastic reduction is observed following irradiation of the amido protons. The effect increases as temperature increase so that: […]

[7] = Z-spectra and Saturation transfer (ST) profiles of aqueous solutions in MT imaging; settings: 7 T, pH 7.4, 312 K, 30 mM (Gd-DTPA 1 mM)
Experimental: The Magnetization Transfer or, more precisely, the amount of saturation transfer (ST) registered in a MT based MRI procedure following irradiation of the mobile proton(s), is conveniently quantified as ST % according to the following equation (2) ST %=100×(1−Ms/M0) (2)
In a first series, tests were conducted at physiological pH and temperature. A second series of tests were conducted at acidic pH.
In the first series of tests, Z-spectra and corresponding Saturation transfer (ST) profiles were measured at 7 T, pH 7.4 and 312 K, for aqueous solutions of iopamidol (30 mM), L-amino acids alanine, glutamine and lysine (each 30 mM), Gd-DTPA (1 mM) and Iopamidol (30 mM).

For `O=C1NCCN1` [2-Imidazolidinone], the LD50 intraperitoneal mouse ([1]; intraperitoneal, mouse) is listed as 500 mg/kg.

For `O=C1CC(=O)NC(=O)N1` [Barbituric Acid], the “LD50 orally in male rats” value ([2]; oral, male rats) is given as over 5000 mg/kg.

In the case of `N=C(N)N` [Guanidine], the “LD orally in rabbits” value ([3]; po) is listed as 500 mg/kg.

In the case of `C[C@H](O)C(=O)Nc1c(I)c(C(=O)NC(CO)CO)c(I)c(C(=O)NC(CO)CO)c1I` [Iopamidol], the LD50 in rats ([2]; rat, in vivo) is listed as 28.2 g/kg, the “reduction of the signal from water in MRI saturation transfer” value ([4]; 2.1 T magnetic field) is listed as 80% and the “% residual signal” value ([4]; attenuation 300 dB) is listed as 15%. For the same molecule, the “% residual signal” value ([4]; attenuation 400 dB) was 40%, the LD50 in dogs [5] was 34700 mg/kg and the LD50 in rabbits [3] was 19600 mg/kg. For the same molecule, the LD50 in mice ([1]; mouse, in vivo) was 44.5 g/kg, the “% residual signal” value ([6]; 15° C.) was 39% and the “% residual signal” value ([6]; 25° C.) was 30%. The “% residual signal” value ([6]; 39° C.) was 24%.

In the case of `N=C(N)NCCC[C@H](N)C(=O)O` [L-Arginine], the LD50 intravenous mouse ([1]; mouse, in vivo, iv) is given as 2030 mg/kg.

In the case of `C[C@H](N)C(=O)O` [L-alanine], the “Saturation Transfer Value pH = 7.4” value [7] is reported as 0 and the “Saturation Transfer Value pH = 7.4” value ([7]; listed as alanine) is reported as “failed to provide any detectable signals”.

With `NCCCC[C@H](N)C(=O)O` [L-lysine] the “Saturation Transfer Value pH = 7.4” value [7] was 0 and the “Saturation Transfer Value pH = 7.4” value ([7]; listed as lysine) was “failed to provide any detectable signals”.

For `CC(=O)Nc1c(I)c(C(=O)N[C@H]2C(O)O[C@H](CO)[C@@H](O)[C@@H]2O)c(I)c(N(C)C(C)=O)c1I` (stereo partly drawn) [Metrizamide], the “LD50 i.v. in mice” value ([1]; i.v., mice (Aspelin)) is listed as 17300 mg/kg, the “LD50 i.v. in mice” value ([1]; i.v., mice (Salvenson)) is listed as 18600 mg/kg and the “LD50 i.v. in mice” value ([1]; i.v., mice (Sovak)) is listed as 11500 mg/kg. The “LD50 i.v. in mice” value ([1]; i.v., mice (Torsten)) was 15000 mg/kg.

For `O=C(O)C1CCCCN1` (stereo not drawn) [Pipecolinic. Acid], the LD50 intravenous mouse ([1]; intravenous, mouse) is listed as 2200 mg/kg.

In the case of `CC(=O)Nc1c(I)c(NC(C)=O)c(I)c(C(=O)[O-])c1I.[Na+]` [Sodium diatrizoate], the “LD50 i.v. in rats” value ([2]; i.v., rats (Langecker)) is listed as 14700 mg/kg.

In the case of `Cc1cn([C@H]2C[C@H](O)[C@@H](CO)O2)c(=O)[nH]c1=O` [Thymidine], the LD50 intraperitoneal mouse ([1]; mouse, in vivo, ip) is given as 2512 mg/kg.

For Iopromide, the LD50 in rats ([2]; rats, i.v.) is listed as 11.4 g iodine/kg body weight and the LD50 in mice ([1]; mice, i.v.) is listed as 16.5 g iodine/kg body weight.
